Calls of active or inactive are those of the source. The calls are words filed in the database; no cut-off is given here.
Experiments:
[1] = target: Alpha-enolase (Homo sapiens) (UniProt P06733); assay: Binding affinity to recombinant ENO1 (unknown origin) at 10 uM by Western blot analysis
[2] = Drug uptake in human MDA-MB-231 cells at 10 uM incubated for 5 hrs by imaging based microscopic analysis; type: ADME, cell-based; conditions: mda-mb-231, 5 h
MDA-MB-231 [3] = assay: Induction of cell cycle arrest in human MDA-MB-231 cells assessed as G2/M phase cells at 0.625 uM incubated for 24 hrs by PI/RNase staining based flow cytometric analysis relative to control; type: functional
L02 = assay: Cytotoxicity against human HL7702 cells assessed as inhibition of cell growth incubated for 72 hrs by CCK8 assay; type: toxicity, cell-based; conditions: l02, 72 h
MDA-MB-231 [4] = assay: Induction of apoptosis in human MDA-MB-231 cells assessed as necrotic cells at 5 uM incubated for 48 hrs by Annexin V-FITC/PI staining based analysis (reference value: 1.06%); type: functional
MDA-MB-231 [5] = assay: Induction of apoptosis in human MDA-MB-231 cells assessed as viable cells at 5 uM incubated for 48 hrs by Annexin V-FITC/PI staining based analysis (reference value: 95.14%); type: functional; conditions: read-out: Activity
MDA-MB-231 [6] = assay: Induction of apoptosis in human MDA-MB-231 cells transfected with FABP5 siRNA assessed as early apoptotic cells at 5 uM incubated for 48 hrs by Annexin V-FITC/PI staining based analysis (reference value: 3.25%); type: functional
MDA-MB-231 [7] = assay: Induction of cell cycle arrest in human MDA-MB-231 cells assessed as accumulation of cells at G0/G1 phase at 0.625 uM incubated for 24 hrs by PI/RNase staining based flow cytometric analysis relative to control; type: functional
Albumin = Albumin (Homo sapiens, UniProt P02768); assay: Binding affinity to N-terminal 6his/SUMO-tagged human serum albumin expressed in Escherichia coli BL21 (DE3) cells incubated for 2 to 7 hrs by fluorescence based SDS-PAGE analysis; conditions: time 2-7 hrs
Sequence of Albumin (P02768 whole entry): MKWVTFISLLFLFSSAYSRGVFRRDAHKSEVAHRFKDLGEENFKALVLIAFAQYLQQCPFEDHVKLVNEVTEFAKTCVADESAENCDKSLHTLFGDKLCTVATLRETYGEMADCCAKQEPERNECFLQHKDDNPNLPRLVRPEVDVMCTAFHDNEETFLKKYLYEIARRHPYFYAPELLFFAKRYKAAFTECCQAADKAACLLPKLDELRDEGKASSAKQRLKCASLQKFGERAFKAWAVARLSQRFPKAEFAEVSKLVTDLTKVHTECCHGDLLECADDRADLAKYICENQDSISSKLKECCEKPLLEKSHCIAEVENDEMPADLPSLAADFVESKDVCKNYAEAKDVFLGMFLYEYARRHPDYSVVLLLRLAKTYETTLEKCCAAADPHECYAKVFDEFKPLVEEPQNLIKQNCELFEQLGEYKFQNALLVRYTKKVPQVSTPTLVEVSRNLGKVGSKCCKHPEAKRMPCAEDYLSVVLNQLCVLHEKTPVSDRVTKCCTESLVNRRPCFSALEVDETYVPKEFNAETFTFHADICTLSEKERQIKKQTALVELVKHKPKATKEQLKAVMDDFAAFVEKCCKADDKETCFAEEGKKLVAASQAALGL

[8] = target: T1, Peptidyl-prolyl cis-trans isomerase FKBP4 (Homo sapiens) (UniProt Q02790); assay: Binding affinity to recombinant FKBP4 (unknown origin) at 10 uM by Western blot analysis
T1 sequence (whole entry): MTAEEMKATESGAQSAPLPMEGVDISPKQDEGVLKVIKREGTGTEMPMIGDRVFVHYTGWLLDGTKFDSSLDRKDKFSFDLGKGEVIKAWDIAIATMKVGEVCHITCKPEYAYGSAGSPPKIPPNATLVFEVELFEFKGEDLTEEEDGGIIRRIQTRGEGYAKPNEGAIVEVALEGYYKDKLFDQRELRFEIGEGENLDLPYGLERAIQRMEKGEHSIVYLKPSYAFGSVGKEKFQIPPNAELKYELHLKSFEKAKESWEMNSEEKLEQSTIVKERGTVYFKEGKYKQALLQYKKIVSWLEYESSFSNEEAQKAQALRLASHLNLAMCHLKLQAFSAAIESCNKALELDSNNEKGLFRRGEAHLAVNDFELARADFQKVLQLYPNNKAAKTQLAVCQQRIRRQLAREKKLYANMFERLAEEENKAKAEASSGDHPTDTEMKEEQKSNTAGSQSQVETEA

MDA-MB-231 [9] = assay: Induction of apoptosis in human MDA-MB-231 cells assessed as early apoptotic cells at 5 uM incubated for 48 hrs by Annexin V-FITC/PI staining based analysis (reference value: 1.98%); type: functional
[10] = tested on: GTPase KRas (Homo sapiens), P01116 [G12C]; assay: Binding affinity to N-terminal 6his/SUMO-tagged KRAS G12C mutant (unknown origin) expressed in Escherichia coli BL21 (DE3) cells at 10 uM incubated for 2 to 7 hrs by fluorescence based SDS-PAGE analysis; conditions: time 2-7 hrs
Sequence of GTPase KRas (Homo sapiens), P01116 [G12C] (P01116 whole entry G12C): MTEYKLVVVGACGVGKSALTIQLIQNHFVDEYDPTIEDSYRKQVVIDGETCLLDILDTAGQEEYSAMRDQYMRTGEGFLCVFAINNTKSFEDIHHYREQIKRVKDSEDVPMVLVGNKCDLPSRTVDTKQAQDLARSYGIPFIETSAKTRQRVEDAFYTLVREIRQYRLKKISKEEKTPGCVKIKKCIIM

MDA-MB-231 [11] = assay: Induction of apoptosis in human MDA-MB-231 cells transfected with FABP5 siRNA assessed as viable cells at 5 uM incubated for 48 hrs by Annexin V-FITC/PI staining based analysis (reference value: 85.75%); type: functional; conditions: read-out: Activity
[12] = target: Glutathione S-transferase P (Homo sapiens, UniProt P09211); assay: Binding affinity to N-terminal 6his/SUMO-tagged GSTP1 (unknown origin) expressed in Escherichia coli BL21 (DE3) cells incubated for 2 to 7 hrs by fluorescence based SDS-PAGE analysis; conditions: time 2-7 hrs
Sequence of Glutathione S-transferase P (P09211 2-210 limits assumed): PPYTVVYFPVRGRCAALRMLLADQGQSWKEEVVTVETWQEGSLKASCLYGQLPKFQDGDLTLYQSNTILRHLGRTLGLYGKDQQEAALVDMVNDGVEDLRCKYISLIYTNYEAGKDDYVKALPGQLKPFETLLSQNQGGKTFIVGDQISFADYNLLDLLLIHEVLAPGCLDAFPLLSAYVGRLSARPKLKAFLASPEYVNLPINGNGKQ

[13] = target: Leucine-rich PPR motif-containing protein, mitochondrial (Homo sapiens) (UniProt P42704); assay: Binding affinity to LRPPRC in human MDA-MB-231 cells at 20 uM incubated for 2 to 5 hrs by pull down based LC-MS analysis; type: cell-based; conditions: time 2-5 hrs

Sequence of Alpha-enolase (Homo sapiens) (P06733 whole entry): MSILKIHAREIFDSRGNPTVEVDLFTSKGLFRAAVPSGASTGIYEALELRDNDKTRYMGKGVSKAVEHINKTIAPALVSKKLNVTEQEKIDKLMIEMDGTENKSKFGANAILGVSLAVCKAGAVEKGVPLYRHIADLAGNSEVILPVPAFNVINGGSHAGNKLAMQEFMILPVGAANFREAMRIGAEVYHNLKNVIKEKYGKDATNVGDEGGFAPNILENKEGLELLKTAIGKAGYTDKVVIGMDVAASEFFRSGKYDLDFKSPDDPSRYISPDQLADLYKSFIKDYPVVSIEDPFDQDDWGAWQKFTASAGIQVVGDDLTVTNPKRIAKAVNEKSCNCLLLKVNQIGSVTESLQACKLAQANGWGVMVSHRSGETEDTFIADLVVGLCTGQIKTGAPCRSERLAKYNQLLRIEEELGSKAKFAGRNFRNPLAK

In the case of C#CCOc1ccc(-c2cc2=O)cc1, the Activity [1] is reported as “Active”, the Drug uptake [2] is reported as “Active” and the Activity (MDA-MB-231 [3]) is reported as 12.03%. The Activity (L02) was “Non-Toxic”, the Activity (MDA-MB-231 [4]) was 2.49% and the viability at 5 µM (MDA-MB-231 [5]) was 67.3%. For the same compound, the Activity (MDA-MB-231 [6]) was 30.82%, the Activity (MDA-MB-231 [7]) was 71.89% and the Activity (Albumin) was “Active”. For the same compound, the Activity [8] was “Active”, the Activity (MDA-MB-231 [9]) was 16.23% and the Activity [10] was “Active”. For the same compound, the viability at 5 µM (MDA-MB-231 [11]) was 28.9%, the Activity [12] was “Active” and the Activity [13] was “Active”.
